In PubChem BioAssay (NCI):
Values joined by “and” are separate entries in the source; they are usually repeats but may differ in a detail not shown here. Equal values may be shown once.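 A five-concentration, 48-hour dose response in 96-well plates underlies each endpoint, interpolated linearly between surrounding concentrations. GI50 marks 50% less growth. TGI marks complete inhibition of growth.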

Legend:
Assay in all cases: growth of human tumour cells (NCI), 48 h
ACHN renal = test system: ACHN renal
OVCAR-5 ovarian = test system: OVCAR-5 ovarian
DU-145 prostate = test system: DU-145 prostate
SF-295 CNS = test system: SF-295 CNS
K-562 leukemia = test system: K-562 leukemia
MDA-MB-435 = test system: MDA-MB-435
HL-60(TB) leukemia = test system: HL-60(TB) leukemia
T-47D breast = test system: T-47D breast
786-0 renal = test system: 786-0 renal
HCT-116 colon = test system: HCT-116 colon

| Structure (SMILES) | GI50 (ACHN renal) | TGI (ACHN renal) | GI50 (OVCAR-5 ovarian) | TGI (OVCAR-5 ovarian) | GI50 (DU-145 prostate) | TGI (DU-145 prostate) | GI50 (SF-295 CNS) | TGI (SF-295 CNS) | GI50 (K-562 leukemia) | TGI (K-562 leukemia) [µM] | GI50 (MDA-MB-435) | TGI (MDA-MB-435) | GI50 (HL-60(TB) leukemia) | TGI (HL-60(TB) leukemia) | GI50 (T-47D breast) | TGI (T-47D breast) | GI50 (786-0 renal) | TGI (786-0 renal) | GI50 (HCT-116 colon) | TGI (HCT-116 colon) |
| --- | --- | --- | --- | --- | --- | --- | --- | --- | --- | --- | --- | --- | --- | --- | --- | --- | --- | --- | --- | --- |
| O=[N+]([O-])c1cccc(-c2nc3sccn3c2-c2ccnc(NCCCNS(=O)(=O)c3cccc(F)c3)n2)c1 | 2.19 µM | 11.2 µM | 7.83 µM | > 100 µM | 2.6 µM | 12.9 µM | 2.52 µM | 7.79 µM | 1.73 µM | > 100 | 2.98 µM | 11.6 µM | 2.97 µM | 8.57 µM | 0.391 µM | 4.64 µM | 7.97 µM | 45.6 µM | 2.74 µM | > 100 µM |
| CC(=O)NC1=C(OS(=O)(=O)c2ccc(C)cc2)CN(C)C1=O | – | 12.3 µM | – | 32 µM | – | 16.7 µM | – | 13.9 µM | – | 28.3 | – | 16.7 µM | – | 7.09 µM | – | 9.35 µM | – | 16.5 µM | – | 12 µM |
| Cc1ccc(-c2cc(-c3ccc(C)cc3)nc(NCCNc3ccnc4cc(Cl)ccc34)n2)cc1 | 1.68 µM | 3.13 µM | 1.65 µM | 3.07 µM | 1.81 µM | 3.31 µM | 1.8 µM | 3.49 µM | 1.82 µM | 4.5 | 1.77 µM | 3.35 µM | 2 µM | 4.15 µM | 1.74 µM | 3.6 µM | 1.79 µM | 3.67 µM | 1.6 µM | 3.44 µM |
| O=C(O)C/C=C/CC(=O)O | – | > 100 µM | – | > 100 µM | – | > 100 µM | – | > 100 µM | – | > 100 | – | > 100 µM | – | > 100 µM | – | > 100 µM | – | > 100 µM | – | > 100 µM |
| CC(C)(C)c1ccc(OCCCCCCN2CCNCC2)cc1 | 5.01 µM | 17.5 µM | 13.7 µM | 29.4 µM | 10.5 µM | 23.2 µM | 8.82 µM | 22.3 µM | 1.75 µM | 4.48 | 3.17 µM | 11.9 µM | 1.98 µM | 4.32 µM | 2.22 µM | 5.94 µM | 3.34 µM | 11.6 µM | 3.18 µM | 13.9 µM |
| Cc1ccc(C2=NOC3=c4ccccc4=CSC3=C2c2ccc([N+](=O)[O-])cc2)cc1 | 13.8 µM | 61.4 µM | 25.2 µM | > 100 µM | 15.2 µM | > 100 µM | 13.3 µM | 49.9 µM | 36.1 µM | > 100 | 57.9 µM | > 100 µM | > 100 µM | > 100 µM | 5.22 µM | 47.1 µM | 0.58 µM | 72.5 µM | 3.35 µM | > 100 µM |
| C=C1CC[C@@H]2[C@](C)(COC(C)=O)[C@@H](O)CC[C@@]2(C)[C@@H]1COc1ccc2ccc(=O)oc2c1 | > 100 µM | > 100 µM | > 100 µM | > 100 µM | > 100 µM | > 100 µM | 25.9 µM | 79.1 µM | 62.6 µM | > 100 | > 100 µM | > 100 µM | > 100 µM | > 100 µM | > 100 µM | > 100 µM | 31 µM | > 100 µM | > 100 µM | > 100 µM |
| CC(C)(C)c1n[nH]c(=S)n(/N=C/c2ccc(F)c(Oc3ccccc3)c2)c1=O | 33.8 µM | > 100 µM | 54.3 µM | > 100 µM | 67.7 µM | > 100 µM | 15.3 µM | > 100 µM | 42.1 µM | > 100 | 38 µM | > 100 µM | 61.9 µM | > 100 µM | 55.7 µM | > 100 µM | 34.9 µM | > 100 µM | > 100 µM | > 100 µM |
| Cc1ccc(C(=O)Nc2cccc(C(F)(F)F)c2)cc1Nc1nc(-c2cccnc2)nc2c1cnn2C | 2.13 µM and 1.08 µM | 11.1 µM and 7.4 µM | 1.36 µM and 0.845 µM | 15.1 µM and > 10 µM | 5.5 µM and 3.09 µM | 26.7 µM and > 10 µM | 2.12 µM and 1.84 µM | 4.99 µM and 4.47 µM | 0.0359 µM and 0.0309 µM | > 100 | 1.64 µM and 1.45 µM | 4.74 µM and 4.95 µM | 0.423 µM and 0.273 µM | 3.59 µM and 3.57 µM | 3.44 µM and 1.86 µM | 16.3 µM and 8.72 µM | 2.67 µM and 1.64 µM | 8.01 µM and 5.12 µM | 0.917 µM and 0.377 µM | 2.87 µM and 3.67 µM |
| COc1cc2nc(N3CCCC3)nc(NCC3CCCCC3)c2cc1OC | 1.44 µM | 2.75 µM | 1.59 µM | 2.96 µM | 1.51 µM | 2.92 µM | 1.38 µM | 2.71 µM | 0.334 µM | 2.1 | 1.11 µM | 2.33 µM | 0.505 µM | 2.21 µM | 1.45 µM | 3.51 µM | 1.47 µM | 3.11 µM | 0.805 µM | 2.21 µM |
| COc1cccc(C=Nc2cc(C)ccn2)c1O.COc1cccc(C=Nc2cc(C)ccn2)c1O.[Cu] | 22.3 µM | 43.8 µM | 20.2 µM | 44.7 µM | 19.3 µM | 41.6 µM | 18 µM | 46.1 µM | 18.2 µM | 68.1 | 13.6 µM | 45.9 µM | 1.75 µM | 14.2 µM | 12 µM | 33.1 µM | 14.3 µM | 45.2 µM | 14.1 µM | 32.3 µM |
| CCCCNCC(=O)O[C@]1(CC)C(=O)OCc2c1cc1n(c2=O)Cc2cc3ccccc3nc2-1 | – | 3.77 µM | – | 5.95 µM | – | 1.32 µM | – | 11.7 µM | – | > 48.7 | – | 11.3 µM | – | 0.314 µM | – | 2.44 µM | – | 0.946 µM | – | 4.8 µM |
| Nc1ncnc2[nH]ncc12 | 0.535 µM | > 100 µM | 0.765 µM | > 100 µM | 0.358 µM | 18 µM | 0.401 µM | 6.37 µM | 0.279 µM | > 100 | 0.58 µM | > 56 µM | 0.361 µM | 2.56 µM | 0.265 µM | 4.52 µM | 0.623 µM | 21.2 µM | 0.511 µM | 10.5 µM |
